Legend:
GAPDH = GAPDH (Homo sapiens, UniProt P04406); assay: GAPDH equilibrium in the GAPDH/PGK1 coupled assay; type: biochemical; conditions: without PGK1
Source text: FIG. 6A-D. CBR-470-1 inhibits PGK1 in vitro and in situ. (a) Schematic of the GAPDH/PGK1 coupled assay. Pre-equilibration of the GAPDH reaction (top left) results in an NAD^+/NADH equilibrium, which upon addition of PGK1 and ADP pulls the reaction to the right producing more NADH. Monitoring NADH absorbance after addition of PGK1 (bottom right) can be used to monitor PGK1 activity in the forward direction (right). […] (c, d) Relative level of central metabolites in IMR32 cells treated with viral knockdown of PGK1 for 72 hours (c) (n=4) and with CBR-470-1 relative DMSO alone for the indicative times (d) (n=3). Each metabolite is normalized to the control condition at each time point. Data shown represent mean±SEM of biologically independent samples.
Recombinant PGK1 assay. PGK1 enzymatic activity in the forward direction was measured with a coupled enzymatic assay^34. Three PGK1 conditions were prepared by dissolving recombinant PGK1 in potassium phosphate buffer (10 mM KH2PO4, 10 mM MgSO4, pH 7.0), and transferring the aliquots of PGK1 solution to the microtubes being treated with same amount of DMSO and indicated concentrations of CBR-470-1. Final concentration of PGK1 is 20 ng/mL and DMSO is 1% for each sample. […] The change in absorbance at 340 nm at room temperature was measured every 20 seconds for 45 minutes, by Tecan Infinite M200 plate reader. […]

KEAP1 = target: T1, KEAP1 (Homo sapiens, UniProt Q14145); assay: MGx dose-response HMW-KEAP1 formation in FLAG-KEAP1 lysates or purified KEAP1; type: biochemical; conditions: FLAG-KEAP1 containing lysates or purified KEAP1, freshly distilled MGx
T1 construct: full-length, human KEAP1 (28023, Addgene) was transiently expressed from a pcDNA/FRT/TO plasmid with a C-terminal 3×FLAG tag; host or cells: HEK293T
Procedure: Metabolite Treatments and HMW-KEAP1 screening. For in vitro screening of glycolytic metabolites, HEK293T cells expressing FLAG-KEAP1 were lysed by snap-freeze-thaw cycles (3×) in PBS, pH 7.4, containing EDTA-free complete protease inhibitor (Roche). Lysates were cleared by centrifugation and the supernatants normalized for concentration by Bradford reagent (2 mg/mL). Concentrated stocks of each metabolite were made in PBS, which were added to the lysate samples for the final indicated concentrations and incubated at 37° C. for 2.5 hours with shaking. Following incubation, samples were denatured with 6 M urea and processed for SDS-PAGE and western blotting. Methylglyoxal (40% v/v with H2O), glyceraldehyde 3-phosphate (GAP), dihydroxyacetone phosphate (DHAP), and 2,3-bisphosphoglycerate (2,3-BPG) were all obtained from Sigma Aldrich and used as PBS stocks. […] Each mixture was incubated at 37° C. for 8 hours with rotating, HMW-KEAP1 formation was analyzed by SDS-PAGE and western blot.
For studies with recombinant KEAP1, FLAG-KEAP1 was expressed in HEK293T cells from transient transfection of the Flag-Keap1 plasmid (Addgene plasmid #28023). […] 12 μL of this reaction was then separated by SDS-PAGE and the presence of HMW-KEAP1 evaluated by anti-FLAG Western blotting as described or by silver staining using the Pierce Silver Stain Kit (ThermoFisher Scientific).

T1 sequence (Q14145 whole entry): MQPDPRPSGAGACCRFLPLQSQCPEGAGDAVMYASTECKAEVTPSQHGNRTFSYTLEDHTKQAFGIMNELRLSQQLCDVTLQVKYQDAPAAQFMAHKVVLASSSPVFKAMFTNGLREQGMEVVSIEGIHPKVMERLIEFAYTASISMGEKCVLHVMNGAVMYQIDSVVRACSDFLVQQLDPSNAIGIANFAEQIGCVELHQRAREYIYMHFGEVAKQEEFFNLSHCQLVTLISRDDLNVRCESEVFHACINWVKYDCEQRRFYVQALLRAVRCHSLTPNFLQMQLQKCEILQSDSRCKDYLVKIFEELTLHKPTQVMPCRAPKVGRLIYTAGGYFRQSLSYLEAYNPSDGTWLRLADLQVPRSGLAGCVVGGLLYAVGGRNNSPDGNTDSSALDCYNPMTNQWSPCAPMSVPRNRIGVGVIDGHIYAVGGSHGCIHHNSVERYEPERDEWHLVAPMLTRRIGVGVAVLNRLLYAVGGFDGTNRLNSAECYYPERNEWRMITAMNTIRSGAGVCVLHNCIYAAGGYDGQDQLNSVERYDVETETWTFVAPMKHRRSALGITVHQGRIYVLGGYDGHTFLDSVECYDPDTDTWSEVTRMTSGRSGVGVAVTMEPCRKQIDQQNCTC
Sequence of GAPDH (P04406 whole entry, species assumed): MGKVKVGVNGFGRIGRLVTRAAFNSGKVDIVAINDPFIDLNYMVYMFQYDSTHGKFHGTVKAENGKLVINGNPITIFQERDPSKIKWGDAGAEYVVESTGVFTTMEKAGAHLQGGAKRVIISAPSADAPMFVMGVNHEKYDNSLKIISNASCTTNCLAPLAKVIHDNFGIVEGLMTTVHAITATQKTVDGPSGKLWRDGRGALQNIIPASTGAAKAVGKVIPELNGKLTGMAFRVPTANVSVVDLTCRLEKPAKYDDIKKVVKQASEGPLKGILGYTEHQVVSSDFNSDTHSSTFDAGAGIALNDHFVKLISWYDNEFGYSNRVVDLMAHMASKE

SMILES	GAPDH equilibrium (GAPDH)	formation of HMW-KEAP1 (KEAP1)
CC(C)CN[C@H]1CS(=O)(=O)C[C@@H]1S(=O)(=O)c1ccc(Cl)cc1 [CBR-470-1]	does not affect the GAPDH equilibrium alone	–
CC(=O)C=O [MGx, methylglyoxal, reference compound]	–	dose-dependent formation of HMW-KEAP1 at mid-μM concentrations

Source: US12048686B2, “Compositions and methods for activating NRF2-dependent gene expression” (The University of Chicago, priority 2018, dated 2024)
